In ChEMBL document CHEMBL3991942, “Low molecular weight MYC-MAX inhibitors” (2011):
Blank lines part the entries; values can stand above or below the molecule they belong to. Activity calls are given as the source filed them. No cut-off for these calls is given here.

Experiments:
[1] = biological target: T1, c-Myc/c-Max (Homo sapiens) (UniProt P01106+P61244); experiment: Inhibition of c-Myc/Max interaction in human HL60 nuclear extracts at 100 to 200 uM after 30 mins by co-immunoprecipitation assay; type: protein assay
[2] = Cytotoxicity against rat KO-HMG cells assessed as cell growth inhibition at 6 to 50 uM after 3 to 4 days by trypan blue exclusion assay; type: cell-based
HL-60 [3] = experiment: Effect on absolute levels of Max in human HL60 nuclear extracts at 100 to 200 uM after 30 mins by co-immunoprecipitation assay; conditions: hl-60, 0.5 h
[4] = biological target: Myc proto-oncogene protein (Homo sapiens) (UniProt P01106); experiment: Binding affinity to recombinant human His6 tagged c-Myc bHLH-LZ domain (353 to 439 residues) with GGCD extension at C-terminus expressed in Escherichia coli BL21 DE3 (pLysS) by fluorescence polarization assay
[5] = biological target: Myc proto-oncogene protein (Homo sapiens) (UniProt P01106); experiment: Binding affinity to recombinant human His6 tagged c-Myc bHLH-LZ domain (353 to 439 residues) with GGCD extension at C-terminus expressed in Escherichia coli BL21 DE3 (pLysS) at 25 uM by fluorescence polarization assay
[6] = biological target: T1, c-Myc/c-Max (Homo sapiens); experiment: Inhibition of recombinant human His6 tagged c-Myc bHLH-LZ domain (353 to 439 residues) with GGCD extension at C-terminus/recombinant human full length His6 tagged Max (151 residues) expressed in Escherichia coli assessed as reduction of heterodimer binding to HEX labeled E-box-containing DNA after 90 mins by electrophoretic mobility shift assay
[7] = biological target: Myc proto-oncogene protein (Rattus norvegicus) (UniProt P09416); experiment: Inhibition of c-Myc in rat TGR1 cells assessed as cell growth inhibition at 6 to 50 uM after 3 to 4 days by trypan blue exclusion assay; type: cell-based
HL-60 [8] = experiment: Effect on absolute levels of c-Myc in human HL60 nuclear extracts at 100 to 200 uM after 30 mins by co-immunoprecipitation assay; conditions: hl-60, 0.5 h
[9] = biological target: Protein max (Homo sapiens) (UniProt P61244); experiment: Binding affinity to recombinant human full length His6 tagged Max (151 residues) expressed in Escherichia coli M15 (pRep4) at 25 uM by fluorescence polarization assay
H016.4C = experiment: Cytotoxicity against rat H016.4C cells assessed as cell growth inhibition at 6 to 50 uM after 3 to 9 days by trypan blue exclusion assay; type: functional, cell-based

Structure (SMILES): CC(C)c1ccc(/C=C2\SC(=S)NC2=O)cc1
inhibition [1]: Active | Activity (HL-60 [3]): Non-Toxic | K [4]: 1 µM | Activity [5]: Active | inhibition [6]: Dose-dependent effect | Activity (HL-60 [8]): Non-Toxic | Activity [9]: inactive

Structure (SMILES): C/C(=C1/SC(=S)NC1=O)c1ccccc1
Activity [5]: inactive | Activity [9]: inactive

Structure (SMILES): O=C1NC(=S)S/C1=C\C1CCCCC1
inhibition [1]: Active | Activity (HL-60 [3]): Non-Toxic | inhibition [6]: Dose-dependent effect | Activity (HL-60 [8]): Non-Toxic

Structure (SMILES): O=C1NC(=S)S/C1=C\c1ccc(Cl)cc1
inhibition [1]: Active | Activity [2]: Non-Toxic | Activity (HL-60 [3]): Non-Toxic | K [4]: 2.5 µM | Activity [5]: Active | inhibition [6]: Dose-dependent effect | inhibition [7]: Active | Activity (HL-60 [8]): Non-Toxic | Activity [9]: inactive | growth inhibition (GI) (H016.4C): inactive

Structure (SMILES): CCN(CC)c1ccc(/C=C2\SC(=S)NC2=O)cc1
Activity [5]: inactive | Activity [9]: inactive

Structure (SMILES): O=C1NC(=S)S/C1=C\c1ccc(O)c(O)c1
inhibition [1]: Active | Activity [2]: Non-Toxic | Activity (HL-60 [3]): Non-Toxic | K [4]: 8.6 µM | Activity [5]: Active | inhibition [6]: Dose-dependent effect | inhibition [7]: Active | Activity (HL-60 [8]): Non-Toxic | Activity [9]: inactive | growth inhibition (GI) (H016.4C): inactive

Structure (SMILES): O=C1NC(=S)S/C1=C\c1ccc(O)cc1
Activity [5]: inactive | Activity [9]: inactive

Second part, led by results:

inhibition [1]: Active | K [4]: 1.4 µM | Activity [5]: Active | inhibition [6]: Dose-dependent effect | inhibition [7]: Active | Activity [9]: inactive
Structure (SMILES): CCc1ccc(/C=C2\SC(=S)N(CCC(C)=O)C2=O)cc1
Activity [2]: Non-Toxic | Activity (HL-60 [3]): Non-Toxic | Activity (HL-60 [8]): Non-Toxic | growth inhibition (GI) (H016.4C): inactive

inhibition [1]: Active | K [4]: 1.8 µM | Activity [5]: Active | inhibition [6]: Dose-dependent effect | inhibition [7]: Active | Activity [9]: inactive
Structure (SMILES): CC(C)c1ccc(/C=C2\SC(=S)N(CN3CCCCC3)C2=O)cc1
Activity [2]: Non-Toxic | Activity (HL-60 [3]): Non-Toxic | Activity (HL-60 [8]): Non-Toxic | growth inhibition (GI) (H016.4C): inactive

inhibition [1]: Active | inhibition [6]: Dose-dependent effect | inhibition [7]: Active
Structure (SMILES): C#CCN1C(=O)S/C(=C/c2ccc(CC)cc2)C1=O
Activity [2]: Non-Toxic | Activity (HL-60 [3]): Non-Toxic | Activity (HL-60 [8]): Non-Toxic | growth inhibition (GI) (H016.4C): inactive

inhibition [1]: Active | K [4]: 0.6 µM | Activity [5]: Active | inhibition [6]: Dose-dependent effect | inhibition [7]: Active | Activity [9]: inactive
Structure (SMILES): O=C1/C(=C/c2ccc(Cl)cc2)SC(=S)N1CN1CCCCC1
Activity [2]: Non-Toxic | Activity (HL-60 [3]): Non-Toxic | Activity (HL-60 [8]): Non-Toxic | growth inhibition (GI) (H016.4C): inactive

inhibition [1]: Active | K [4]: 2.3 µM | Activity [5]: Active | inhibition [6]: Dose-dependent effect | inhibition [7]: Active | Activity [9]: inactive
Structure (SMILES): CCc1ccc(/C=C2\SC(=S)NC2=O)cc1
Activity [2]: Non-Toxic | Activity (HL-60 [3]): Non-Toxic | Activity (HL-60 [8]): Non-Toxic | growth inhibition (GI) (H016.4C): inactive

inhibition [1]: Active | K [4]: 5.7 µM | Activity [5]: Active | inhibition [6]: Dose-dependent effect | Activity [9]: inactive
Structure (SMILES): CCc1ccc(/C=C2\SC(=S)N(CN3CCCCC3)C2=O)cc1
Activity (HL-60 [3]): Non-Toxic | Activity (HL-60 [8]): Non-Toxic

inhibition [1]: Active | K [4]: 3.1 µM | Activity [5]: Active | inhibition [6]: Dose-dependent effect | inhibition [7]: Active | Activity [9]: inactive
Structure (SMILES): C=CCN1C(=O)/C(=C\c2ccc(CC)cc2)SC1=S
Activity [2]: Non-Toxic | Activity (HL-60 [3]): Non-Toxic | Activity (HL-60 [8]): Non-Toxic | growth inhibition (GI) (H016.4C): inactive

inhibition [1]: Active | K [4]: 4.1 µM | Activity [5]: Active | inhibition [6]: Dose-dependent effect | Activity [9]: inactive
Structure (SMILES): CCc1ccc(/C=C2\SC(SC)=NC2=O)cc1
Activity (HL-60 [3]): Non-Toxic | Activity (HL-60 [8]): Non-Toxic
